{"source": "patent US10006005B2", "about": "“Culture medium and method for inducing differentiation of pluripotent stem cells to hepatoblasts” (National University Corporation Chiba University, priority 2014, dated 2018)", "molecules": {"B1": {"name": "oncostatin M: cytokine of the IL-6 family (protein, UniProt P13725 26-221, looked up)", "Oncostatin-M": "AAIGSCSKEYRVLLGQLQKQTDLMQDTSRLLDPYIRIQGLDVPKLREHCRERPGAFPSEETLRGLGRRGFLQTLNATLGCVLHRLADLEQRLPKAQDLERSGLNIEDLEKLQMARPNILGLRNNIYCMAQLLDNSDTAEPTKAGRGASQPPTPTPASDAFQRKLEGCRFLHGYHRFMHSVGRVFSKWGESPNRSRR"}}, "key": {"[1]": {"tested_on": "human iPS cell line (201B7)", "test": "Optical microscopic observation of survival of cultured human iPS cells", "type": "cell-based", "settings": "reagent added to culture in HSM, observed after 3 days; M50054 at 100 μg/mL", "experimental": "(§1) A human iPS cell line (201B7; Riken Cell Bank) was seeded to a 25-cm^2 flask (manufactured by Asahi Glass Co., Ltd.), a 6-well plate (manufactured by Asahi Glass Co., Ltd.), or a 96-well flat-bottomed plate (manufactured by Asahi Glass Co., Ltd.), which is coated with Matrigel, and was cultured in a 5% CO2 incubator at 37° C. The coating with Matrigel was performed by: adding a solution prepared by adding 8.7 ml of Dalbecco's Modified Eagle's Medium/Nutrient F-12 Ham (manufactured by Sigma) to 0.3 ml of Matrigel™ (manufactured by Becton Dickinson) to a 25-cm^2 flask, a 6-well plate, and a 96-well flat-bottomed plate, in amounts of 1 ml, 0.5 ml, and 20 μl, respectively; and leaving the whole to stand still at room temperature for 30 minutes. ReproFF (manufactured by ReproCELL Incorporated) was used as a cell culture medium. ReproFF is a culture medium for culturing primate ES cells or human IFS cells while maintaining the pluripotency. The cells were passaged by culture using a 25-cm^2 flask. The cells were dispersed as described below. After the aspiration of the medium, the 25-cm^2 flask was rinsed with 1 ml of physiological saline per flask. After the aspiration of the saline, 0.5 ml of Accutase (manufactured by Innovative Cell Technologies) was added and the cells were incubated in an incubator for 5 minutes. 0.5 ml of ReproFF was added, and the cells were harvested. Then, the cells were centrifuged at 1,000 rpm for 3 minutes. The supernatant was removed by aspiration, and then the precipitated cells were used by being suspended in ReproFF.\nAn optical microscope CKX41N-31PHP (manufactured by Olympus Corporation) was used for an optical microscopic observation of cells. […]\nFurther, RNA was extracted and the expression levels of various genes were analyzed by real-time quantitative PCR. […]\nThe resultant cells were observed under an optical microscope. In addition, the expression level of AFP in the resultant cells was measured."}, "[2]": {"tested_on": "AFP gene", "test": "AFP gene expression in cultured iPS cells by real-time quantitative PCR", "type": "cell-based, human", "settings": "for expression level of AFP gene: 2 days in HSM plus compound alone (10 μM)", "experimental": "as §1\nA medium used in a search study on various growth factors (hereinafter abbreviated as iPSm[-]) was prepared by adding 20% Knockout™ Serum Replacement (hereinafter abbreviated as KSR; manufactured by Life Technologies), Minimum Essential Amino Acids (manufactured by Life Technologies), 2 mM L-glutamine (manufactured by Life Technologies), and 1 mM 2-mercaptoethanol (manufactured by Sigma-Aldrich) to Dulbecco's […]-F12 (manufactured by Sigma-Aldrich) (Takahashi, K. et al., “Induction of Pluripotent Stem Cells from Adult Human Fibroblasts by Defined Factors,” Cell, 2007, Vol. 131, No. 5, p. 861-872).\nCell differentiation was confirmed by measuring an expression gene by real-time quantitative PCR. RNA was extracted by using Isogen (manufactured by NIPPON GENE) according to the manufacturer's instructions. 5 μg of total RNA was synthesized by using Superscript3 first-strand synthesis system for PCR (manufactured by Life Technologies) and an oligo dT primer according to the manufacturer's instructions. Real-time quantitative PCR was performed using 4 ng of synthesized cDNA per sample. PCR was performed as follows: PCR were 40 cycles of denaturation for 5 seconds and annealing-extension for 5 seconds. SYBR Green Master Mix (manufactured by Life Technologies) was used for the reaction. Mini Opticon system (manufactured by Bio-Rad) was used for detection in real-time PCR. The expression level of each gene was calculated as an average value of data obtained from three wells. Ribosomal protein L (RPL)-19 was used as an internal control and the expression level of each gene was represented as a relative expression level to the expression level of RPL-19.\nFirst, iPS cells were cultured in HSM to confirm differentiation of the iPS cells to hepatocytes. Specifically, iPS cells were cultured in HSM for 2 days, and then gene expression in the cells was measured by real-time quantitative PCR. Thus, the induction of differentiation of iPS cells to hepatocytes was detected. ReproFF was used as a control medium and similar investigations were performed.\nIn this Example, the addition of NEAA and sodium pyruvate (1 mM) to HSM was investigated for the purpose of enhancing the survival of iPS cells. Specifically, iPS cells were cultured for 2 days in a medium prepared by adding NEAA and sodium pyruvate (1 mM) to HSM, and the expression of AFP gene was measured by real-time quantitative PCR. […]"}, "[3]": {"tested_on": "human iPS cell line (201B7)", "test": "Cell proliferation assay (MTS assay) of surviving iPS cells", "type": "cell-based", "experimental": "A human iPS cell line (201B7, Riken Cell Bank) was seeded to a 96-well flat-bottomed plate coated with Matrigel at 1,000 cells/50 μl per well. After 48 hours of culture, 3-(4,5-dimethylthiazol-2-yl)-5-(3-carboxymethoxyphenyl)-2-(4-sulfophenyl)-2H-tetrazolium inner salt (MTS; manufactured by Promega) was added at 5 μl per well, and the cells were incubated in an incubator for 2 hours. After that, cell proliferation was verified by measuring an absorbance at a wavelength of 490 nm with iMark™ Microplate Absorbance Reader (manufactured by Bio-Rad).\nIn view of the foregoing, MTS assay was performed 48 hours after the addition of M50054."}, "[4]": {"settings": "1 week in iPSm(-) supplemented with growth factor"}, "[5]": {"settings": "48 hours in HSM supplemented with the factor alone"}}, "data": [{"molecule": "O=C(O)c1ccc(Cl)c(S(=O)(=O)Nc2cccc([N+](=O)[O-])c2)c1", "note": "[CTP inhibitor, 4-chloro-3-[[(3-nitrophenyl)amino]sulfonyl]-benzoic acid]", "values": [{"measurement": "survival of iPS cells observed with an optical microscope", "setting": "[1]", "result": "died"}]}, {"molecule": "O=C1OC(C=Cc2ccccc2)=N/C1=C\\c1cccnc1", "note": "[DAPK inhibitor, (4Z)-4-(3-pyridylmethylene)-2-styryl-oxazol-5-one]", "values": [{"measurement": "survival of iPS cells observed with an optical microscope", "setting": "[1]", "result": "died"}]}, {"molecule": "CC(=O)Nc1ccc(Cc2ccc(NC(C)=O)cc2)cc1", "note": "[FH1, N,N′-(methylenebis(4,1-phenylene))diacetamide]", "values": [{"measurement": "expression level of AFP gene", "setting": "[2]", "result": "did not exhibit such effect"}]}, {"molecule": "Cc1ccc(Cl)cc1N(CC(=O)Nc1c(F)cccc1F)S(C)(=O)=O", "note": "[FPH1, 2-(N-(5-chloro-2-methylphenyl)methylsulfonamido)-N-(2,6-difluorophenyl)acetamide]", "values": [{"measurement": "expression level of AFP gene", "setting": "[2]", "result": "increased"}]}, {"molecule": "O=C1CCCC(=O)C1CC1C(=O)CCCC1=O", "note": "[M50054, 2,2′-methylenebis(1,3-cyclohexanedione)]", "values": [{"measurement": "survival of iPS cells observed with an optical microscope", "setting": "[1]", "result": "some of the iPS cells survived"}, {"measurement": "MTS assay value, one-way analysis of variance", "setting": "[3]; 100 μg/mL compared to 0 μg/mL and 1,000 μg/mL, P<0.05", "result": "significantly high value"}, {"measurement": "cell toxicity (MTS assay)", "setting": "[3]; 1,000 μg/mL", "result": "showed cell toxicity"}, {"measurement": "absorbance in MTS assay (surviving cells)", "setting": "[3]; 48 hours after addition of M50054, 100 g/mL as printed", "result": "maximum absorbance"}, {"measurement": "expression of AFP gene", "setting": "[2]; 48 hours in HSM plus M50054 at […] as printed", "result": "upregulated"}]}, {"molecule": "HGF: hepatocyte growth factor, commercially available from Wako Pure Chemical Industries", "values": [{"measurement": "expression of AFP gene", "setting": "[2]; [4]", "result": "upregulating effect"}]}, {"molecule": "B1", "values": [{"measurement": "expression of AFP gene", "setting": "[2]; [4]", "result": "upregulating effect"}, {"measurement": "expression of AFP gene, compared to HGF", "setting": "[2]; [5]", "result": "high upregulating effect"}, {"measurement": "expression of AFP gene, compared to fetal liver", "setting": "[2]; [5]", "result": "more upregulated than the expression of the gene in fetal liver"}]}]}
